Data published in patent US20240009174A1, “METHODS FOR DISRUPTING MITOCHONDRIAL UNFOLDED PROTEIN RESPONSE” (Health Research, Inc., priority 2020, published 2024).

What was measured:
[1] = target: T1, HSP60-ClpP interaction (Homo sapiens, UniProt P10809); assay: Proximity ligation assay (PLA) of HSP60-ClpP in PCa cells; format: cell-based; conditions: data not shown
T1 construct: endogenous in cells
Experimental: (§1) Identification of novel inhibitor of HSP60-ClpP interaction that disrupts UPR^mt function and induces PCa cell death. Having shown that two arms of UPR^mt, HSP60 chaperonin and ClpP protease interact and play critical role in PCa cell survival, an in silico analysis was performed and a small molecule library (developed by Enamine Ltd) was screened to identify drugs targeting the apical domain of HSP60 critical for its interaction with ClpP. 9 compounds (A-I) were identified and screened for their cell death inducing potential in PCa cells (data not shown). […] Colony forming ability of PCa cells was inhibited by DCEM1 treatment (data not shown).

[2] = tested on: LNCaP and PC-3 cells; assay: poly-Ub protein levels by western blotting; format: cell-based; conditions: 24 hours
Experimental: FIG. 6. Pharmacological inhibition of HSP60-ClpP interaction induces UPR^mt and PCa cell death. (A) Docking of DCEM1 into apical domain of HSP60. (B) LNCaP and PC-3 cells were treated with DCEM1 for 24 hours and HSP60-ClpP interaction was analyzed by co-immunoprecipitation assay. (C) LNCaP and PC-3 cells were treated with DCEM1 for 24 hours and mitoROS levels were analyzed by flow cytometry using mitoSOX dye. (D) LNCaP and PC-3 cells were treated with DCEM1 for 24 hours and poly-Ub protein levels were analyzed by western blotting. (E) LNCaP and PC-3 cells were treated with DCEM1 for 24 and 48 hours and apoptotic cell populations were analyzed by flow cytometry using Annexin V FITC/PI method as explained in materials and methods. In (E) top panel, the bars in each series from left to right are control, 5, 10, and 20, and in (E) bottom panel, the bars in each series from left to right are DMSO, 5, 10, and 20. (F) LNCaP and PC-3 cells were treated with DCEM1 for 24 and 48 hours and lysates were prepared and analyzed for DEVDase activity using specific peptide substrate. […] (G) LNCaP and PC-3 cells were pre-treated with SKQ1 followed by DCEM1 treatment and analyzed for cell viability by MTT assay. (H) LNCaP and PC-3 cells were treated with either DCEM1 or H2O2 (200 μM) for 24 hours and total DNA were isolated and analyzed for mtDNA damage as described in materials and methods. […]

[3] = tested on: TKO PCa cells; assay: mitoROS, mitoMass and apoptosis in TKO PCa cells; format: cell-based, mouse; conditions: data not shown
Experimental: as §1

[4] = tested on: PC-3 cells; assay: Oxygen consumption rate (OCR); format: cell-based; conditions: DCEM1 100 nM, 500 nM, 1 μM, 5 μM
[5] = tested on: c-Myc, EZH2, AR, PSA; assay: c-Myc, EZH2, AR and PSA protein expression in PCa cells; format: cell-based; conditions: LNCaP, 24 hours
Experimental: FIG. 8. Pharmacological inhibition of HSP60-ClpP inhibit oncogenic signaling and PCa tumor growth in vivo. (A) LNCaP, PC-3 and 22RV1 cells were treated with DCEM1 and analyzed for c-Myc and EZH2 protein expression after 24 hours of treatment. (B) LNCaP, 22RV1 and VCaP cells were treated with DCEM1 and analyzed for AR and PSA protein expression after 24 hours of treatment. (C-D) 22RV1 cells (1×10^6 cells) were mixed with matrigel (50:50 v/v) and injected into each flank of SCID mice and treated with DCEM1 (60 mg/kg bw) through IP route twice weekly and tumors were harvested, photographed (C) and weighed (D) at 30 days. (E) DEVDase activity were analyzed in 22RV1 xenograft tumor tissue following DCEM1 treatment and represented as fold change compared to control. (F) 22RV1 xenograft tissue were sectioned and expression of ki67, c-Myc and EZH2 proteins were analyzed by Immunohistochemistry as described in material and methods. […] (I) DEVDase activity were analyzed in PC-3 xenograft tumor tissue following DCEM1 treatment and represented as fold change compared to control. […] All animals were sacrificed at 16 weeks of age and prostate tissue and tumors were harvested, whole cell lysate were prepared and analyzed for HSP60 and ClpP expression (N); c-Myc and EZH2 expression (0) and SYP and CK 8/18 expression (P) by immunoblotting. […]

[6] = tested on: 22RV1 (AR positive) xenografts; assay: 22RV1 xenograft in SCID mice; format: in vivo; conditions: 60 mg/kg bw
Experimental: FIG. 8. Pharmacological inhibition of HSP60-ClpP inhibit oncogenic signaling and PCa tumor growth in vivo. (A) LNCaP, PC-3 and 22RV1 cells were treated with DCEM1 and analyzed for c-Myc and EZH2 protein expression after 24 hours of treatment. (B) LNCaP, 22RV1 and VCaP cells were treated with DCEM1 and analyzed for AR and PSA protein expression after 24 hours of treatment. (C-D) 22RV1 cells (1×10^6 cells) were mixed with matrigel (50:50 v/v) and injected into each flank of SCID mice and treated with DCEM1 (60 mg/kg bw) through IP route twice weekly and tumors were harvested, photographed (C) and weighed (D) at 30 days. (E) DEVDase activity were analyzed in 22RV1 xenograft tumor tissue following DCEM1 treatment and represented as fold change compared to control. (F) 22RV1 xenograft tissue were sectioned and expression of ki67, c-Myc and EZH2 proteins were analyzed by Immunohistochemistry as described in material and methods. (G-H) PC-3 cells (1×10^6 cells) were mixed with matrigel (50:50 v/v) and injected into each flank of SCID mice and treated with DCEM1 (60 mg/kg bw) through IP route twice weekly and tumors were harvested, photographed (G) and weighed (H) at 35 days. (I) DEVDase activity were analyzed in PC-3 xenograft tumor tissue following DCEM1 treatment and represented as fold change compared to control. (J) PC-3 xenograft tumor tissue were fixed and sections were used for in situ PLA to analyze HSP60-ClpP interaction in these tissue samples. […] All animals were sacrificed at 16 weeks of age and prostate tissue and tumors were harvested, whole cell lysate were prepared and analyzed for HSP60 and ClpP expression (N); c-Myc and EZH2 expression (0) and SYP and CK 8/18 expression (P) by immunoblotting. […]
Ablation of HSP60-ClpP interaction by DCEM1 downregulates c-Myc, EZH2 and AR as well as inhibits tumor growth in vivo. […] The effect of DCEM1 on 22RV1 (AR positive) and PC-3 (AR negative) xenografts growth in SCID mice was analyzed. […]

T1 sequence (P10809 27-573): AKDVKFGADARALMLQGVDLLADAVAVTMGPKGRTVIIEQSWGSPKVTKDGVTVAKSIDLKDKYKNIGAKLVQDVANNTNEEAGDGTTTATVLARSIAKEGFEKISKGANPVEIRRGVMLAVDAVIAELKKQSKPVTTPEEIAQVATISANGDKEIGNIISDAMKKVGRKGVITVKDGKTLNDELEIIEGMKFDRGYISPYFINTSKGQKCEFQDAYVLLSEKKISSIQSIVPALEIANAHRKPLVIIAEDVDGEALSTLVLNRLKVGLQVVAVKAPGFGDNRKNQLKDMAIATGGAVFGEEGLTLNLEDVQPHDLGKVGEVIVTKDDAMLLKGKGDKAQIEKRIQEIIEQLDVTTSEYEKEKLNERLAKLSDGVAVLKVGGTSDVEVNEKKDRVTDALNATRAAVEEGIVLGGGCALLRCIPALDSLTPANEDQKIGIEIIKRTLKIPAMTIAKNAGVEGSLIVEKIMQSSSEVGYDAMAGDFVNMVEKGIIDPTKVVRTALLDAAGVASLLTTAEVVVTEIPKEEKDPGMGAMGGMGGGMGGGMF

CCOc1cc(CNCc2nc3ccccc3[nH]2)ccc1OCc1cccs1 [DCEM1]
HSP60-ClpP interaction by PLA [1]: efficiently inhibited HSP60-ClpP interaction | poly-Ub protein levels [2]: increased accumulation of poly-Ub proteins | mitoROS and mitoMass in TKO PCa cells ([3]; cells established from TKO mouse prostate tumor tissue): induced mitoROS and mitoMass | apoptotic cell death in TKO PCa cells [3]: induced robust apoptotic cell death | oxygen consumption rate (OCR) [4]: reduction in oxygen consumption rate | PSA levels ([5]; 22RV1 and VCaP cells): Decrease in PSA levels | c-Myc, EZH2, and AR signaling in PCa cells ([5]; PC-3, 22RV1, VCaP cells): downregulates c-Myc, EZH2, and AR signaling | caspase-3 (DEVDase) activity in 22RV1 xenograft tumors ([6]; IP, twice weekly): induced | tumor volume and weight, 22RV1 xenografts ([6]; IP, twice weekly, 30 days): effectively inhibited | expression of Ki67, c-Myc, EZH2 and AR in 22RV1 xenograft ([6]; immunohistochemistry): downregulated expression of Ki67, c-Myc, EZH2 and AR
